The supplement of paper PMC10883282

Assays:
Experiment in all cases: relative viability vs DMSO control (72 h) (fraction); higher = more viable cells
[1] = system: SW872
Summary of the method: (§1)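 Sarcoma cell lines went into 384-well plates at densities chosen to reach 80–90% confluence. After 24 h, each well received 2.5 µl of serially diluted compound, with source plates running from 10 mM to 0.0002 mM, and the plates were kept 72 h at 37 °C, 5% CO2, alongside 0.1% DMSO vehicle and a 5 µM positive control. Relative viability was derived from ATPLite readings as percent growth and averaged over up to triplicate wells. The data were then rescaled so that 1 stands for full and 0 for none.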

[2] = system: RD
Summary of the method: as §1

[3] = system: A204
Summary of the method: as §1

[4] = system: VA-ES-BJ
Summary of the method: as §1

[5] = system: SYO-1
Summary of the method: as §1

[6] = system: HS729
Summary of the method: as §1

[7] = system: KHOS-NP
Summary of the method: as §1

[8] = system: G401
Summary of the method: as §1

[9] = system: SK-ES-1
Summary of the method: as §1

[10] = system: SK-LMS-1
Summary of the method: as §1

[11] = system: MES-SA
Summary of the method: as §1

[12] = system: SW684
Summary of the method: as §1

COc1cc2ncnc(Nc3ccc(F)c(Cl)c3)c2cc1OCCCN1CCOCC1 [Gefitinib]
Details | relative viability
[1], 0.00017 µM | 1
[1], 0.00051 µM | 1.02
[1], 0.00152 µM | 1.05
[1], 0.00457 µM | 1.026
[1], 0.01372 µM | 1.03
[1], 0.04115 µM | 1.02
[1], 0.1235 µM | 1.03
[1], 0.3704 µM | 1.04
[1], 1.111 µM | 1.01
[1], 3.333 µM | 0.868
[1], 10 µM | 0.476
[2], 0.00017 µM | 1.03
[2], 0.00051 µM | 1.04
[2], 0.00152 µM | 1.03
[2], 0.00457 µM | 1.04
[2], 0.01372 µM | 0.995
[2], 0.04115 µM | 1.01
[2], 0.1235 µM | 1.03
[2], 0.3704 µM | 1.01
[2], 1.111 µM | 1.05
[2], 3.333 µM | 1.05
[2], 10 µM | 0.18
[3], 0.00017 µM | 1.06
[3], 0.00051 µM | 1.08
[3], 0.00152 µM | 1.09
[3], 0.00457 µM | 1.06
[3], 0.01372 µM | 1.05
[3], 0.04115 µM | 1.1
[3], 0.1235 µM | 1.1
[3], 0.3704 µM | 1.03
[3], 1.111 µM | 1.04
[3], 3.333 µM | 0.876
[3], 10 µM | 0.448
[4], 0.00017 µM | 1.05
[4], 0.00051 µM | 1.05
[4], 0.00152 µM | 1.074
[4], 0.00457 µM | 1.04
[4], 0.01372 µM | 1.04
[4], 0.04115 µM | 1.05
[4], 0.1235 µM | 1.05
[4], 0.3704 µM | 1.06
[4], 1.111 µM | 1.06
[4], 3.333 µM | 1.04
[4], 10 µM | 0.75
[5], 0.00017 µM | 1.01
[5], 0.00051 µM | 1.02
[5], 0.00152 µM | 0.999
[5], 0.00457 µM | 0.998
[5], 0.01372 µM | 0.999
[5], 0.04115 µM | 0.9815
[5], 0.1235 µM | 1
[5], 0.3704 µM | 0.983
[5], 1.111 µM | 0.955
[5], 3.333 µM | 0.829
[5], 10 µM | 0.104
[6], 0.00017 µM | 0.9733
[6], 0.00051 µM | 0.97
[6], 0.00152 µM | 1.03
[6], 0.00457 µM | 0.947
[6], 0.01372 µM | 1.01
[6], 0.04115 µM | 1.03
[6], 0.1235 µM | 1
[6], 0.3704 µM | 1.01
[6], 1.111 µM | 0.958
[6], 3.333 µM | 0.853
[6], 10 µM | 0.621
[7], 0.00017 µM | 1.09
[7], 0.00051 µM | 1.08
[7], 0.00152 µM | 1.08
[7], 0.00457 µM | 1.08
[7], 0.01372 µM | 1.096
[7], 0.04115 µM | 1.07
[7], 0.1235 µM | 1.06
[7], 0.3704 µM | 1.06
[7], 1.111 µM | 1.08
[7], 3.333 µM | 1.08
[7], 10 µM | 0.898
[8], 0.00017 µM | 1.01
[8], 0.00051 µM | 1
[8], 0.00152 µM | 0.9788
[8], 0.00457 µM | 0.987
[8], 0.01372 µM | 1
[8], 0.04115 µM | 0.996
[8], 0.1235 µM | 1
[8], 0.3704 µM | 0.993
[8], 1.111 µM | 0.984
[8], 3.333 µM | 0.835
[8], 10 µM | 0.582
[9], 0.00017 µM | 0.989
[9], 0.00051 µM | 0.988
[9], 0.00152 µM | 1
[9], 0.00457 µM | 1.01
[9], 0.01372 µM | 0.9857
[9], 0.04115 µM | 1
[9], 0.1235 µM | 1.01
[9], 0.3704 µM | 0.958
[9], 1.111 µM | 0.864
[9], 3.333 µM | 0.599
[9], 10 µM | 0.168
[10], 0.00017 µM | 1.07
[10], 0.00051 µM | 1.09
[10], 0.00152 µM | 1.05
[10], 0.00457 µM | 1.08
[10], 0.01372 µM | 1.07
[10], 0.04115 µM | 1.08
[10], 0.1235 µM | 1.06
[10], 0.3704 µM | 1.04
[10], 1.111 µM | 1.05
[10], 3.333 µM | 0.902
[10], 10 µM | 0.108
[11], 0.00017 µM | 0.97
[11], 0.00051 µM | 0.948
[11], 0.00152 µM | 0.959
[11], 0.00457 µM | 0.952
[11], 0.01372 µM | 0.937
[11], 0.04115 µM | 0.962
[11], 0.1235 µM | 0.969
[11], 0.3704 µM | 0.969
[11], 1.111 µM | 0.925
[11], 3.333 µM | 0.739
[11], 10 µM | 0.4455
[12], 0.00017 µM | 1.09
[12], 0.00051 µM | 1.16
[12], 0.00152 µM | 1.09
[12], 0.00457 µM | 1.17
[12], 0.01372 µM | 1.1
[12], 0.04115 µM | 1.15
[12], 0.1235 µM | 1.07
[12], 0.3704 µM | 1.16
[12], 1.111 µM | 1.1
[12], 3.333 µM | 1.15
[12], 10 µM | 0.424

CCOc1cc2ncc(C#N)c(Nc3ccc(OCc4ccccn4)c(Cl)c3)c2cc1NC(=O)/C=C/CN(C)C [Neratinib]
Details | relative viability
[1], 0.00017 µM | 1.03
[1], 0.00051 µM | 1.02
[1], 0.00152 µM | 1.03
[1], 0.00457 µM | 1.03
[1], 0.01372 µM | 1.01
[1], 0.04115 µM | 0.97
[1], 0.1235 µM | 0.932
[1], 0.3704 µM | 0.76
[1], 1.111 µM | 0.609
[1], 3.333 µM | 0.492
[1], 10 µM | -0.00553
[2], 0.00017 µM | 1.12
[2], 0.00051 µM | 1.1
[2], 0.00152 µM | 1.11
[2], 0.00457 µM | 1.11
[2], 0.01372 µM | 1.09
[2], 0.04115 µM | 1.072
[2], 0.1235 µM | 0.95
[2], 0.3704 µM | 0.714
[2], 1.111 µM | 0.562
[2], 3.333 µM | 0.384
[2], 10 µM | 0.0033
[3], 0.00017 µM | 1.09
[3], 0.00051 µM | 1.09
[3], 0.00152 µM | 1.08
[3], 0.00457 µM | 1.097
[3], 0.01372 µM | 1.03
[3], 0.04115 µM | 1.06
[3], 0.1235 µM | 1.01
[3], 0.3704 µM | 0.665
[3], 1.111 µM | 0.395
[3], 3.333 µM | 0.338
[3], 10 µM | -0.00133
[4], 0.00017 µM | 0.999
[4], 0.00051 µM | 1.01
[4], 0.00152 µM | 1.02
[4], 0.00457 µM | 1
[4], 0.01372 µM | 0.969
[4], 0.04115 µM | 0.92
[4], 0.1235 µM | 0.891
[4], 0.3704 µM | 0.734
[4], 1.111 µM | 0.503
[4], 3.333 µM | 0.483
[4], 10 µM | 0.46
[5], 0.00017 µM | 0.957
[5], 0.00051 µM | 0.955
[5], 0.00152 µM | 0.938
[5], 0.00457 µM | 0.932
[5], 0.01372 µM | 0.931
[5], 0.04115 µM | 0.917
[5], 0.1235 µM | 0.875
[5], 0.3704 µM | 0.716
[5], 1.111 µM | 0.581
[5], 3.333 µM | 0.431
[5], 10 µM | -0.0166
[6], 0.00017 µM | 0.944
[6], 0.00051 µM | 0.922
[6], 0.00152 µM | 0.955
[6], 0.00457 µM | 0.905
[6], 0.01372 µM | 0.925
[6], 0.04115 µM | 0.861
[6], 0.1235 µM | 0.771
[6], 0.3704 µM | 0.672
[6], 1.111 µM | 0.639
[6], 3.333 µM | 0.645
[6], 10 µM | 0.00633
[7], 0.00017 µM | 1.042
[7], 0.00051 µM | 1.022
[7], 0.00152 µM | 1.022
[7], 0.00457 µM | 1.01
[7], 0.01372 µM | 1.04
[7], 0.04115 µM | 1.01
[7], 0.1235 µM | 1.05
[7], 0.3704 µM | 1.02
[7], 1.111 µM | 0.73
[7], 3.333 µM | 0.484
[7], 10 µM | 0.486
[8], 0.00017 µM | 1.02
[8], 0.00051 µM | 1
[8], 0.00152 µM | 0.998
[8], 0.00457 µM | 0.992
[8], 0.01372 µM | 1
[8], 0.04115 µM | 0.95
[8], 0.1235 µM | 0.93
[8], 0.3704 µM | 0.791
[8], 1.111 µM | 0.692
[8], 3.333 µM | 0.56
[8], 10 µM | 0.0616
[9], 0.00017 µM | 1.05
[9], 0.00051 µM | 1.02
[9], 0.00152 µM | 1.04
[9], 0.00457 µM | 1.01
[9], 0.01372 µM | 1.01
[9], 0.04115 µM | 0.963
[9], 0.1235 µM | 0.797
[9], 0.3704 µM | 0.397
[9], 1.111 µM | 0.298
[9], 3.333 µM | 0.235
[9], 10 µM | 0.00187
[10], 0.00017 µM | 1.03
[10], 0.00051 µM | 1
[10], 0.00152 µM | 1.06
[10], 0.00457 µM | 1.02
[10], 0.01372 µM | 1.08
[10], 0.04115 µM | 1.06
[10], 0.1235 µM | 0.943
[10], 0.3704 µM | 0.724
[10], 1.111 µM | 0.698
[10], 3.333 µM | 0.646
[10], 10 µM | 0.0104
[11], 0.00017 µM | 0.903
[11], 0.00051 µM | 0.889
[11], 0.00152 µM | 0.924
[11], 0.00457 µM | 0.913
[11], 0.01372 µM | 0.897
[11], 0.04115 µM | 0.869
[11], 0.1235 µM | 0.79
[11], 0.3704 µM | 0.517
[11], 1.111 µM | 0.348
[11], 3.333 µM | 0.282
[11], 10 µM | 0.0189
[12], 0.00017 µM | 1.16
[12], 0.00051 µM | 1.1
[12], 0.00152 µM | 1.11
[12], 0.00457 µM | 1.13
[12], 0.01372 µM | 1.16
[12], 0.04115 µM | 1.116
[12], 0.1235 µM | 1.06
[12], 0.3704 µM | 0.848
[12], 1.111 µM | 0.826
[12], 3.333 µM | 0.792
[12], 10 µM | -0.0161
